Data as given in US20170355705A1 (GlaxoSmithKline Intellectual Property (No.2) Limited, priority 2014, published 2017).
Where two headings read alike, the source gives them in different places.

Biological target: T1, SIRT1 (Homo sapiens, UniProt Q96EB6)
T1 sequence (Q96EB6 1-747): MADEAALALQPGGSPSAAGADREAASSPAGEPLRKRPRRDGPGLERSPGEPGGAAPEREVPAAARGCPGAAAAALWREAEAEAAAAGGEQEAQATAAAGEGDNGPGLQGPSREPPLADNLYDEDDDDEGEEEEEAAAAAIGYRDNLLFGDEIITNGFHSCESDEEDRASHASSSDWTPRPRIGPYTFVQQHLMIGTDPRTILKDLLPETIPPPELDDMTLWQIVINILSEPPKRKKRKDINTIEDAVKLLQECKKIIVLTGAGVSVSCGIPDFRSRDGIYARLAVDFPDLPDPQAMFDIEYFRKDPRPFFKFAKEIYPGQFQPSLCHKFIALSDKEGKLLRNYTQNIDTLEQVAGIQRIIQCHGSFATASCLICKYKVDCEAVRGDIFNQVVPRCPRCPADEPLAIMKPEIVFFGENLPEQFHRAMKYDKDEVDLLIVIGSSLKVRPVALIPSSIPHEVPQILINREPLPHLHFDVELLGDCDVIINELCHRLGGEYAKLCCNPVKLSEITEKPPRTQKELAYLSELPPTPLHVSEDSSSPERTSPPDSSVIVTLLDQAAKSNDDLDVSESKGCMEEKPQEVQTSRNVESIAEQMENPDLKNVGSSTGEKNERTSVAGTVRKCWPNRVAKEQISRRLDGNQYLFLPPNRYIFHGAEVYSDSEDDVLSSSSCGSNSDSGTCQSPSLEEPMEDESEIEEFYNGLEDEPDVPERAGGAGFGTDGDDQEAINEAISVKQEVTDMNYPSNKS
Assay: Trp mass spectrometry assay of SIRT1 activity (EC1.5, percent maximum activation)
Format: biochemical
Excerpt: Mass spectrometry based assays were used to identify modulators of SIRT1 activity. […] The peptide was labeled with the fluorophore 5TMR (excitation 540 nm/emission 580 nm) at the C-terminus. The sequence of the peptide substrate was based on p53 with several modifications. In addition, the methionine residue naturally present in the sequence was replaced with the norleucine because the methionine may be susceptible to oxidation during synthesis and purification.
The Trp mass spectrometry assay was conducted as follows. […] The SIRT1 protein was obtained by cloning the SirT1 gene into a T7-promoter containing vector, which was then expressed in BL21(DE3) bacterial cells and purified as described in further detail below. Test compound was added at varying concentrations to this reaction mixture and the resulting reactions were monitored. After the 25 minute incubation with SIRT1, 10 μL of 10% formic acid was added to stop the reaction. The resulting reactions were sealed and frozen for later mass spec analysis. The relative SIRT1 activity was then determined by measuring the amount of O-acetyl-ADP-ribose (OAADPR) formed (or, alternatively, the amount of deacetylated Trp peptide generated) by the NAD-dependent sirtuin deacetylation reaction in the presence of varying concentrations of the test compound versus control reactions lacking the test compound. The degree to which the test agent activated deacetylation by SIRT1 was expressed as EC1.5 (i.e., the concentration of compound required to increase SIRT1 activity by 50% over the control lacking test compound), and Percent Maximum Activation (i.e., the maximum activity relative to control (100%) obtained for the test compound).
This time point was the same as that used for test compounds and, within the linear range, the endpoint represents a change in velocity.
For the above assay, SIRT1 protein was expressed and purified as follows. The SirT1 gene was cloned into a T7-promoter containing vector and transformed into BL21(DE3). The protein was expressed by induction with 1 mM IPTG as an N-terminal His-tag fusion protein at 18° C. overnight and harvested at 30,000×g. Cells were lysed with lysozyme in lysis buffer (50 mM Tris-HCl, 2 mM Tris[2-carboxyethyl]phosphine (TCEP), 10 μM ZnCl2, 200 mM NaCl) and further treated with sonication for 10 min for complete lysis. The protein was purified over a Ni-NTA column (Amersham) and fractions containing pure protein were pooled, concentrated and run over a sizing column (Sephadex S200 26/60 global). The peak containing soluble protein was collected and run on an Ion-exchange column (MonoQ). Gradient elution (200 mM-500 mM NaCl) yielded pure protein. This protein was concentrated and dialyzed against dialysis buffer (20 mM Tris-HCl, 2 mM TCEP) overnight. The protein was aliquoted and frozen at −80° C. until further use.
“NT” means not tested; “ND” means not determinable.

[1] = Trp mass spectrometry assay, 0.5 μM peptide substrate, 120 μM βNAD+, 10 nM SIRT1, 25 minutes at 25° C.
[2] = Trp mass spectrometry assay, EC1.5 = concentration giving 150% activation of SIRT1
[3] = Trp mass spectrometry assay, percent maximum activation of SIRT1

SMILES | TRP Activity (EC1.5) [2] | TRP MAX RESP (percent maximum fold activation) [3] | other results
O=C(Nc1ccnc(OCC(O)CO)c1)N1c2nc(-c3cnn(CC(F)(F)F)c3)c(Cl)cc2N2CC[C@H]1C2 (stereo in doubt) [Example 371, (4S)-8-chloro-N-(2-((R)-2,3-dihydroxypropoxy)pyridin-4-yl)-7-(1-(2,2,2-trifluoroethyl)-1H-pyrazol-4-yl)-3,4-dihydro-1,4-methanopyrido[2,3-b][1,4]diazepine-5(2H)-carboxamide] |  |  | TRP Activity (EC1.5, concentration of test compound that results in 150% activation of SIRT1) [1]: B (EC1.5 1-25 μM); TRP MAX RESP (percent maximum fold activation) [1]: A (Fold activation ≧150%)
Cc1ccc(-c2nc3c(cc2C(F)(F)F)N2CC[C@@H](C2)N3C(=O)Nc2cccnc2)cn1 [Example 1, (4S)-7-(6-methylpyridin-3-yl)-N-(pyridin-3-yl)-8-(trifluoromethyl)-3,4-dihydro-1,4-methanopyrido[2,3-b][1,4]diazepine-5(2H)-carboxamide] | C (EC1.5>25 μM) | B (Fold Activation <150%) | 
Cc1ccc(-c2nc3c(cc2Br)N2CC[C@@H](C2)N3C(=O)Nc2ccccn2)cn1 [Example 2, (4S)-8-bromo-7-(6-methylpyridin-3-yl)-N-(pyridin-2-yl)-3,4-dihydro-1,4-methano pyrido[2,3-b][1,4]diazepine-5(2H)-carboxamide] | B (EC1.5 1-25 μM) | A (Fold activation ≧150%) | 
Cc1ccc(-c2nc3c(cc2Cl)N2CC[C@@H](C2)N3C(=O)Nc2cccnc2)cn1 [Example 3, (4S)-8-chloro-7-(6-methylpyridin-3-yl)-N-(pyridin-3-yl)-3,4-dihydro-1,4-methanopyrido[2,3-b][1,4]diazepine-5(2H)-carboxamide] |  |  | TRP Activity (EC1.5): B (key: A: EC1.5<1 μM; B: EC1.5 1-25 μM; EC1.5>25 μM); TRP MAX RESP (percent maximum fold activation): A (key: A: Fold activation ≧150%; B: Fold Activation <150%)
Cc1ccc(-c2nc3c(cc2F)N2CC[C@@H](C2)N3C(=O)Nc2ccccn2)cn1 [Example 5, (4S)-8-fluoro-7-(6-methylpyridin-3-yl)-N-(pyridin-2-yl)-3,4-dihydro-1,4-methanopyrido[2,3-b][1,4]diazepine-5(2H)-carboxamide] | B (EC1.5 1-25 μM) | A (Fold activation ≧150%) | 
Cc1ccc(-c2nc3c(cc2Br)N2CC[C@@H](C2)N3C(=O)Nc2cccnc2)cn1 [Example 6, (4S)-8-bromo-7-(6-methylpyridin-3-yl)-N-(pyridin-3-yl)-3,4-dihydro-1,4-methanopyrido[2,3-b][1,4]diazepine-5(2H)-carboxamide] | B (EC1.5 1-25 μM) | A (Fold activation ≧150%) | 
Cc1ccc(-c2nc3c(cc2F)N2CC[C@@H](C2)N3C(=O)Nc2cccnc2)cn1 [Example 7, (4S)-8-fluoro-7-(6-methylpyridin-3-yl)-N-(pyridin-3-yl)-3,4-dihydro-1,4-methanopyrido[2,3-b][1,4]diazepine-5(2H)-carboxamide] |  |  | TRP Activity (EC1.5): B (key: A: EC1.5<1 μM; B: EC1.5 1-25 μM; EC1.5>25 μM); TRP MAX RESP (percent maximum fold activation): A (key: A: Fold activation ≧150%; B: Fold Activation <150%)
Cc1ccc(-c2nc3c(cc2C)N2CC[C@@H](C2)N3C(=O)Nc2ccccn2)cn1 [Example 8, (4S)-8-methyl-7-(6-methylpyridin-3-yl)-N-(pyridin-2-yl)-3,4-dihydro-1,4-methanopyrido[2,3-b][1,4]diazepine-5(2H)-carboxamide] | B (EC1.5 1-25 μM) | A (Fold activation ≧150%) | 
Cc1ccc(-c2cc(C)c3c(n2)N(C(=O)Nc2ccccn2)[C@H]2CCN3C2)cn1 [Example 9, (4S)-9-methyl-7-(6-methylpyridin-3-yl)-N-(pyridin-2-yl)-3,4-dihydro-1,4-methanopyrido[2,3-b][1,4]diazepine-5(2H)-carboxamide] | B (EC1.5 1-25 μM) | A (Fold activation ≧150%) | 
Cc1ccc(-c2nc3c(cc2C#N)N2CC[C@@H](C2)N3C(=O)Nc2cccnc2)cn1 [Example 10, (4S)-8-cyano-7-(6-methylpyridin-3-yl)-N-(pyridin-3-yl)-3,4-dihydro-1,4-methanopyrido[2,3-b][1,4]diazepine-5(2H)-carboxamide] | B (EC1.5 1-25 μM) | A (Fold activation ≧150%) | 
Cc1cc(-c2nc3c(cc2Br)N2CC[C@@H](C2)N3C(=O)Nc2ccccn2)ccn1 [Example 11, (4S)-8-bromo-7-(2-methylpyridin-4-yl)-N-(pyridin-2-yl)-3,4-dihydro-1,4-methanopyrido[2,3-b][1,4]diazepine-5(2H)-carboxamide] | B (EC1.5 1-25 μM) | A (Fold activation ≧150%) | 
Cc1cc(-c2nc3c(cc2Br)N2CC[C@@H](C2)N3C(=O)Nc2cccnc2)ccn1 [Example 12, (4S)-8-bromo-7-(2-methylpyridin-4-yl)-N-(pyridin-3-yl)-3,4-dihydro-1,4-methanopyrido[2,3-b][1,4]diazepine-5(2H)-carboxamide] | B (EC1.5 1-25 μM) | A (Fold activation ≧150%) | 
Cc1ccc(-c2cc(C)c3c(n2)N(C(=O)Nc2cccnc2)[C@H]2CCN3C2)cn1 [Example 13, (4S)-9-methyl-7-(6-methylpyridin-3-yl)-N-(pyridin-3-yl)-3,4-dihydro-1,4-methanopyrido[2,3-b][1,4]diazepine-5(2H)-carboxamide] | B (EC1.5 1-25 μM) | A (Fold activation ≧150%) | 
Cc1cc(-c2nc3c(cc2F)N2CC[C@@H](C2)N3C(=O)Nc2cccnc2)ccn1 [Example 14, (4S)-8-fluoro-7-(2-methylpyridin-4-yl)-N-(pyridin-3-yl)-3,4-dihydro-1,4-methanopyrido[2,3-b][1,4]diazepine-5(2H)-carboxamide] | B (EC1.5 1-25 μM) | A (Fold activation ≧150%) | 
Cc1cc(-c2nc3c(cc2F)N2CC[C@@H](C2)N3C(=O)Nc2ccccn2)ccn1 [Example 15, (4S)-8-fluoro-7-(2-methylpyridin-4-yl)-N-(pyridin-2-yl)-3,4-dihydro-1,4-methanopyrido[2,3-b][1,4]diazepine-5(2H)-carboxamide] | A (EC1.5<1 μM) | A (Fold activation ≧150%) | 
Cc1ccc(-c2nc3c(cc2Cl)N2CC[C@@H](C2)N3C(=O)Nc2ccccn2)cn1 [Example 16, (4S)-8-chloro-7-(6-methylpyridin-3-yl)-N-(pyridin-2-yl)-3,4-dihydro-1,4-methanopyrido[2,3-b][1,4]diazepine-5(2H)-carboxamide] | B (EC1.5 1-25 μM) | A (Fold activation ≧150%) | 
